Test results reported in ChEMBL document CHEMBL4007468, “Curcumolide reduces diabetic retinal vascular leukostasis and leakage partly via inhibition of the p38MAPK/NF-κ B signaling” (Bioorg Med Chem Lett, 2017).
Activity calls are given as the source filed them. No cut-off for these calls is given here.

Legend:
[1] = system: Rattus norvegicus; experiment: Inhibition of retinal vascular leakage in STZ-induced Wistar rat diabetic retinopathy model assessed as reduction in FITC-dextran leakage at 50 ug/eye administered intravitreally measured after 3 days by fluorescence microscopic method; type: functional
[2] = system: Rattus norvegicus; experiment: Inhibition of retinal vascular leakage in STZ-induced Wistar rat diabetic retinopathy model assessed as Evans blue albumin level in retina at 50 ug/eye administered intravitreally measured after 3 days (reference value: 82.94 +/- 11.2 ug/g); type: functional
[3] = system: Rattus norvegicus; experiment: Inhibition of retinal leukostasis in STZ-induced Wistar rat diabetic retinopathy model assessed as adherent leukocyte count per retina at 50 ug/eye administered intravitreally measured after 3 days by FITC-ConA staining based fluorescence microscopic method (reference value: 52 +/- 10); type: functional
[4] = system: Rattus norvegicus; experiment: Downregulation of TNFalpha level in STZ-induced Wistar rat diabetic retinopathy model at 50 ug/eye administered intravitreally measured after 3 days by Western blot method; type: functional
[5] = system: Rattus norvegicus; experiment: Downregulation of ICAM-1 level in STZ-induced Wistar rat diabetic retinopathy model at 50 ug/eye administered intravitreally measured after 3 days by Western blot method; type: functional
[6] = system: Rattus norvegicus; experiment: Toxicity in STZ-induced Wistar rat diabetic retinopathy model assessed as effect on retina thickness at 75 ug/eye administered intravitreally measured after 3 days by hematoxylin and eosin staining based assay; conditions: in vivo, topical_or_ocular, 72 h
[7] = system: Rattus norvegicus; experiment: Toxicity in STZ-induced Wistar rat diabetic retinopathy model assessed as inflammatory cells accumulation in vitreous at 75 ug/eye administered intravitreally measured after 3 days by hematoxylin and eosin staining based assay; conditions: in vivo, topical_or_ocular, 72 h
[8] = system: Rattus norvegicus; experiment: Toxicity in STZ-induced Wistar rat diabetic retinopathy model assessed as inflammatory cells accumulation in retina at 75 ug/eye administered intravitreally measured after 3 days by hematoxylin and eosin staining based assay; conditions: in vivo, topical_or_ocular, 72 h
[9] = system: Rattus norvegicus; experiment: Toxicity in STZ-induced Wistar rat diabetic retinopathy model assessed as inflammatory cells accumulation in choroid tissues at 75 ug/eye administered intravitreally measured after 3 days by hematoxylin and eosin staining based assay; conditions: in vivo, topical_or_ocular, 72 h
[10] = system: Rattus norvegicus; experiment: Toxicity in STZ-induced Wistar rat diabetic retinopathy model assessed as TUNEL positive cells in retinal layers at 75 ug/eye administered intravitreally measured after 3 days by fluorescence microscopic method; conditions: in vivo, topical_or_ocular, 72 h
[11] = biological target: T1, Inhibitor of nuclear factor kappa-B kinase subunit beta (Homo sapiens) (UniProt O14920); experiment: Inhibition of IKKbeta in HUVEC assessed as reduction in TNFalpha-stimulated IkBalpha phosphorylation at Ser-32 residue preincubated with cells followed by TNFalpha stimulation measured after 30 mins by Western blot method
T1 sequence (whole entry): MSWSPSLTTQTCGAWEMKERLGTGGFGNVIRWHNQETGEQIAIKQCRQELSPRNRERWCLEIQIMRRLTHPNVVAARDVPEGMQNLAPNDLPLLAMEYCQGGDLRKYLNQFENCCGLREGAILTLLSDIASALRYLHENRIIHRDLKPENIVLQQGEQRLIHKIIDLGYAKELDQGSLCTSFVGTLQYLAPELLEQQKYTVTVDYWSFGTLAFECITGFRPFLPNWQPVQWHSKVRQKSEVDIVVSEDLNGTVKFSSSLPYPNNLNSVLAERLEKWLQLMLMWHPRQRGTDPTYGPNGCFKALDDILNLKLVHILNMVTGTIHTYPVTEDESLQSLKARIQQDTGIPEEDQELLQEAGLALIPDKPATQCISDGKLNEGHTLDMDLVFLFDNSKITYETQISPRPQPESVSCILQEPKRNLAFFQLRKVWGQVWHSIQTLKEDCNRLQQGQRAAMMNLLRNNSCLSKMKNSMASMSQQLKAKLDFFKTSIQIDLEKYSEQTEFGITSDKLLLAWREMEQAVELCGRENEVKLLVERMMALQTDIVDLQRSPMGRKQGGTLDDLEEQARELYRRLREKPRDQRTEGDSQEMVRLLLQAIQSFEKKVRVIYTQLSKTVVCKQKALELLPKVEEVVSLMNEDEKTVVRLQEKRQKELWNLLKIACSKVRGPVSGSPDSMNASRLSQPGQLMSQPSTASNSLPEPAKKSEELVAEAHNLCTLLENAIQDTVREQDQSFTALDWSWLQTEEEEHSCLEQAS

[12] = biological target: T1, Inhibitor of nuclear factor kappa-B kinase subunit beta (Homo sapiens); experiment: Inhibition of TNFalpha-stimulated IKKbeta phosphorylation at Ser-177 residue in HUVEC preincubated with cells followed by TNFalpha stimulation measured after 30 mins by Western blot method
[13] = biological target: Transcription factor p65 (Homo sapiens) (UniProt Q04206); experiment: Inhibition of TNFalpha-stimulated NF-kB p65 phosphorylation at Ser-536 residue in HUVEC up to 20 uM preincubated with cells followed by TNFalpha stimulation measured after 30 mins by Western blot method
Transcription factor p65 (Homo sapiens), sequence (Q04206 whole entry): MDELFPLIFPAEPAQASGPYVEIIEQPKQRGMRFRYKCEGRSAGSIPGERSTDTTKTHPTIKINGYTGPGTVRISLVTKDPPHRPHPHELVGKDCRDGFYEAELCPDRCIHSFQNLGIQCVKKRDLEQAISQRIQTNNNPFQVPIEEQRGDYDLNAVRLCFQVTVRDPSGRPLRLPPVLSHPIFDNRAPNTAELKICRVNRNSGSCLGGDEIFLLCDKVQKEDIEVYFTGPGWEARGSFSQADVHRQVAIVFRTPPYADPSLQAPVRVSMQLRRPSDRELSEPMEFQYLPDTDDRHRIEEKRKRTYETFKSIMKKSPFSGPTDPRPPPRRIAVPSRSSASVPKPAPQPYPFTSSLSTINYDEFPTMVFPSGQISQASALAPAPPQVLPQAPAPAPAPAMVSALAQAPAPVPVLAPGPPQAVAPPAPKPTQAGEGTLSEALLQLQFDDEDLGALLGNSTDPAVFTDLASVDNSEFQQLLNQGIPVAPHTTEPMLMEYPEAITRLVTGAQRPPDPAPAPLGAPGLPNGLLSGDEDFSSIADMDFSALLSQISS

[14] = biological target: Transcription factor p65 (Homo sapiens) (UniProt Q04206); experiment: Inhibition of TNFalpha-stimulated NF-kB p65 phosphorylation at Ser-276 residue in HUVEC up to 20 uM preincubated with cells followed by TNFalpha stimulation measured after 30 mins by Western blot method
[15] = biological target: Transcription factor p65 (Homo sapiens) (UniProt Q04206); experiment: Inhibition of TNFalpha-stimulated NF-kB p65 nuclear translocation in HUVEC up to 20 uM preincubated with cells followed by TNFalpha stimulation measured after 30 mins by Western blot method
[16] = species: Homo sapiens; experiment: Inhibition of TNFalpha-stimulated NF-kB in HUVEC assessed as reduction in TNFalpha mRNA level up to 20 uM preincubated with cells followed by TNFalpha stimulation measured after 30 mins by RT-PCR method
[17] = species: Homo sapiens; experiment: Inhibition of TNFalpha-stimulated NF-kB in HUVEC assessed as reduction in ICAM1 mRNA level up to 20 uM preincubated with cells followed by TNFalpha stimulation measured after 30 mins by RT-PCR method
[18] = system: HUVEC; experiment: Cytotoxicity against HUVEC assessed as reduction in cell viability up to 20 uM after 24 hrs by MTT assay; type: cell-based; conditions: human
[19] = biological target: MAP kinase p38 (Homo sapiens) (UniProt O15264+Q15759+Q16539+P53778); experiment: Inhibition of TNFalpha-stimulated MAPK p38 phosphorylation in HUVEC preincubated with cells followed by TNFalpha stimulation measured after 30 mins by Western blot method
[20] = biological target: c-Jun N-terminal kinase, JNK (Homo sapiens) (UniProt P45983+P53779+P45984); experiment: Inhibition of TNFalpha-stimulated JNK phosphorylation in HUVEC up to 20 uM preincubated with cells followed by TNFalpha stimulation measured after 30 mins by Western blot method

inhibition [11]	inhibition [12]	inhibition [13]	inhibition [14]	inhibition [15]	inhibition [16]	inhibition [17]	inhibition [19]	inhibition [20]	Compound	inhibition [1]	Activity [2] [µg/g]	Activity [3]	Activity [4]	Activity [5]	Activity [6]	Activity [7]	Activity [8]	Activity [9]	Activity [10]	Activity [18]
									CC1(C)O[C@@H]2C[C@H]3[C@@H]4CCC5=CC(=O)C=C[C@]5(C)[C@@]4(F)[C@@H](O)C[C@]3(C)[C@]2(C(=O)CO)O1 [TRIAMCINOLONE ACETONIDE]	Active	36.33	19	Active	Active						
Dose-dependent effect	Dose-dependent effect	Active	Active	Active	Active	Active	Dose-dependent effect	inactive	CC1=C[C@]2(C(C)(C)O)C[C@]3(OC2=O)[C@@H](C)CC[C@@H]13	Active	43.53	25	Active	Active	Non-Toxic	Non-Toxic	Non-Toxic	Non-Toxic	Non-Toxic	Non-Toxic
